Biological target: h-cGAS (Homo sapiens, UniProt Q8N884)
Test: cGAS Kinase-Glo inhibition biochemical assay

Sequence of h-cGAS (Q8N884 whole entry): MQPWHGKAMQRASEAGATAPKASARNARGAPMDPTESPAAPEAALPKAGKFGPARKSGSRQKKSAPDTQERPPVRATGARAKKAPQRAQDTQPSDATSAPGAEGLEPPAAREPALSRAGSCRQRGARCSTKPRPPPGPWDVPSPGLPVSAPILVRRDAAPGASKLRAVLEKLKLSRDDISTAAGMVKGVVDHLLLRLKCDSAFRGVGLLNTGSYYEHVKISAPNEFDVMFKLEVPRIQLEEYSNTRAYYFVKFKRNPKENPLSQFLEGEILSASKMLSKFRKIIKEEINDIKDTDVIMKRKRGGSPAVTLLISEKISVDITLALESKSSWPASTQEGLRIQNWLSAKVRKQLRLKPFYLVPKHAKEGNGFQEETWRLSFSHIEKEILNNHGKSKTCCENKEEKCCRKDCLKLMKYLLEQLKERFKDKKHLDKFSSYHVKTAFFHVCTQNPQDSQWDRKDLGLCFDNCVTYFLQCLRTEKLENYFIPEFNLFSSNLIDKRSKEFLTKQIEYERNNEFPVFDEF

IC50: > 10 µM
Structure (SMILES): COCC(=O)N1CCc2[nH]c3c(Cl)c(Cl)ccc3c2C1(C)C [Compound 3, 1-(6,7-dichloro-1,1-dimethyl-1,3,4,5-tetrahydro-2H-pyrido[4,3-b]indol-2-yl)-2-methoxyethan-1-one]

From paper PMC11929900 (Communications Chemistry, 2025)
